Experiments:
mPTP [1] = experiment: mPTP activity (Ca2+ retention) assay in isolated rat liver mitochondria; type: biochemical; conditions: for mPTP Rat liver pIC50: examples tested by different contract research organisations, believed comparable
How it was run: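 pIC50 was taken from Fluo5N fluorescence at 10 min after a 75 μM CaCl2 bolus, scaled between DMSO (0%) and 5 μM cyclosporin A (100%). Compounds, ten half-log concentrations from 30 μM to 1 nM final, sat 10 min at RT with fresh female Sprague Dawley rat liver mitochondria energized by succinate plus rotenone.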

mPTP [2] = experiment: mPTP activity assay in isolated rat brain mitochondria; type: biochemical; conditions: fluorescence at 10 min timepoint
How it was run: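 Fresh brain mitochondria from female Sprague Dawley rats, digitonin-washed, in pH 7.4 mannitol/MOPS/KCl buffer with pyruvate, malate, ADP, oligomycin A and 2 μM Fluo5N. Preincubated with compounds 10 min at RT. Fluo5N fluorescence then read every 3 sec for 10 min on FLIPR Tetra.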

mPTP [3] = experiment: Human platelet mitochondria assay (annexin V / PS exposure by flow cytometry); type: cell-based; conditions: human blood platelets stimulated with thrombin/convulxin/calcium; % AnV-APC positive platelets
Method: The mPTP cell based assay was performed using a transformative functional cell-(human blood platelets)-based assay by flow cytometry. Procoagulant platelets expose phosphatidylserine (PS), allowing a burst of thrombin generation that is responsible for producing an occlusive thrombus. While an increase in cytosolic Ca^2+ concentration is required for deriving platelets to become activated, a higher and more sustained increases in cytosolic Ca^2+ concentration is needed to commit some platelets to becoming procoagulant. Simulation of platelets results in the rapid influx of Ca^2+ across the platelet membrane. The Ca^2+ is then sequestered by mitochondria until the threshold for mPTP opening is reached, at which point the pore opens and the mitochondrial membrane potential is dissipated. mPTP opening and subsequent disruption in mitochondrial membrane potential leads to release of a high concentration of calcium stored in mitochondria into the platelet's cytosol (“supramaximal calcium signal” [1]) which is known to be a requisite initiating signal transduction leading to externalisation of procoagulant PS to the outer leaflet of platelets' plasma membrane. PS externalisation of stimulated platelets can be quantified in live platelets using standard annexin V (AnV) labelling by flow cytometry, enabling pharmacological characterisation of mPTP inhibitors.
Fresh human blood (9 ml) was collected from consenting donors into 3.2% sodium citrate. Acid citrate dextrose (85 mM tri-sodium citrate, 71 mM citric acid, and 111 mM D-glucose) was added (1:7 vol/vol) and platelet-rich plasma was separated by centrifugation (200 g, 10 minutes, ambient temperature, and without any brake). Platelets were pelleted by centrifugation (600 g, 10 minutes, ambient temperature) in the presence of prostaglandin E1 (100 nM) and apyrase (0.02 U/mL). Pelleted platelets were resuspended in N-2-hydroxyethylpiperazine-N′-2-ethanesulfonic acid (HEPES)-buffered saline supplemented with D-glucose (135 mM NaCl, 10 mM HEPES, 3 mM KCl, 1 mM MgCl2, 0.34 mM NaH2PO4, 5 mM D-glucose, 0.1% bovine serum albumin, pH 7.4.) and apyrase (0.02 U/mL). Platelets were rested for 30 minutes at 30° C. before treatment protocols were initiated.
Test compounds were prepared from 10 mM stocks in DMSO. Serial dilution of search test compounds stamped in duplicate into a 96 well plate using Multidrop Pico 8 Digital Dispenser. Platelets were loaded and incubated for 30 min at room temperature. Then a stimulation mix containing Thrombin (FAC: 0.5 U/ml)/Convulxin (FAC: 0.05 μg/ml)/Calcium (FAC: 2 mM) added per well except control/not stimulated wells (This is low signal control). Some wells received no treatment but DMSO vehicle control and used as high signal controls (FAC of DMSO set at 0.1% in all wells of the 96 well plate). The reaction mix incubated for 10 min at room temperature. During last 2 min of stimulation AnV-APC was added to detect surface PS exposure. Samples ten fixed and fluorescence was detected by MACSQuant X flow cytometry and 10 000 platelet events were collected. The percentage of AnV-APC positive platelets was calculated for each well. IC50 for each compound was then calculated using a standard four parameter curve fit model (GraphPad Prism).

With `CC(c1ccccc1)C1(CNC(=O)c2nn(C)c(=O)[nH]2)CCC1` (single isomer, unassigned) [Example 26, 1-methyl-5-oxo-N-((1-(1-phenylethyl)cyclobutyl)methyl)-4,5-dihydro-1H-1,2,4-triazole-3-carboxamide] as the compound, how does the “mPTP Rat liver pIC50” value (mPTP [1]) read?
Its value is 6.87.

And the “mPTP Rat brain pIC50” value (mPTP [2])?
Its value is 7.60.

And the pIC50 (mPTP [3])?
Its pIC50 is 6.77.

For `CC(c1ccccc1)C1(CNC(=O)c2nn(C)c(=O)[nH]2)CCC1` (single isomer, unassigned) [Example 27, 1-methyl-5-oxo-N-((1-(1-phenylethyl)cyclobutyl)methyl)-4,5-dihydro-1H-1,2,4-triazole-3-carboxamide], which “mPTP Rat liver pIC50” value (mPTP [1]) is on record?
Its value is 5.49.

What about the “mPTP Rat brain pIC50” value (mPTP [2]) of the same compound?
Its value is 6.25.

And the pIC50 (mPTP [3])?
The pIC50 was 5.70.

Which results are given for `O=C(NCC1(Cc2ccc(F)cc2F)CC12CC2)c1nccc(=O)[nH]1` (single isomer, unassigned) [Example 235]?
mPTP Rat liver pIC50 (mPTP [1]): 6.79; mPTP Rat brain pIC50 (mPTP [2]): 7.65; pIC50 (mPTP [3]): 7.31

`Cn1nc(C(=O)NCC(C)(Cc2ccc(F)cc2F)C2CC2)[nH]c1=O` (single isomer, unassigned) [Example 239, N-(2-cyclopropyl-3-(2,4-difluorophenyl)-2-methylpropyl)-1-methyl-5-oxo-4,5-dihydro-1H-1,2,4-triazole-3-carboxamide] was tested. Which “mPTP Rat liver pIC50” value (mPTP [1]) did it give?
Its value is 7.10.

And the “mPTP Rat brain pIC50” value (mPTP [2])?
The value was 8.07.

And the pIC50 (mPTP [3])?
The pIC50 was 7.39.

`CC(CNC(=O)c1nccc(=O)[nH]1)(Cc1ccc(F)cc1F)C1CC1` (single isomer, unassigned) [Example 243, N-(2-cyclopropyl-3-(2,4-difluorophenyl)-2-methylpropyl)-6-oxo-1,6-dihydropyrimidine-2-carboxamide] was tested. Which “mPTP Rat liver pIC50” value (mPTP [1]) did it give?
The value was 6.91.

And the “mPTP Rat brain pIC50” value (mPTP [2])?
The value was 7.93.

What about the pIC50 (mPTP [3]) of the same compound?
Its pIC50 is 7.36.

Which results are given for `CC(CNC(=O)c1nccc(=O)[nH]1)(Cc1ccc(F)cc1F)C1CC1` (single isomer, unassigned) [Example 244, N-(2-cyclopropyl-3-(2,4-difluorophenyl)-2-methylpropyl)-6-oxo-1,6-dihydropyrimidine-2-carboxamide]?
mPTP Rat liver pIC50 (mPTP [1]): 6.73; mPTP Rat brain pIC50 (mPTP [2]): 7.53; pIC50 (mPTP [3]): 7.14

With `O=C(NCC1(Cc2ccc(F)cc2F)CC(F)C1)c1nccc(=O)[nH]1` (single isomer, unassigned) [Example 247] as the compound, how does the “mPTP Rat liver pIC50” value (mPTP [1]) read?
The value was 6.27.

And the “mPTP Rat brain pIC50” value (mPTP [2])?
Its value is 7.26.

What about the pIC50 (mPTP [3]) of the same compound?
Its pIC50 is 6.52.

`CC(CNC(=O)c1nccc(=O)[nH]1)(Cc1ccc(F)cc1)C1CC1` (single isomer, unassigned) [Example 252] was tested. Which “mPTP Rat liver pIC50” value (mPTP [1]) did it give?
The value was 6.82.

What about the “mPTP Rat brain pIC50” value (mPTP [2]) of the same compound?
The value was 7.91.

What about the pIC50 (mPTP [3]) of the same compound?
The pIC50 was 7.42.

What does the source list for `Cn1nc(C(=O)NCC2(Cc3ccc(F)cc3F)CCC2)[nH]c1=O` [Example 22, N-((1-(2,4-difluorobenzyl)cyclobutyl)methyl)-1-methyl-5-oxo-4,5-dihydro-1H-1,2,4-triazole-3-carboxamide]?
mPTP Rat liver pIC50 (mPTP [1]): 6.79; mPTP Rat brain pIC50 (mPTP [2]): 7.75; pIC50 (mPTP [3]): 7.14

For `Cn1nc(C(=O)NC[C@H](Cc2ccc(F)cc2F)C2CC2)[nH]c1=O` [Example 96, (R)—N-(2-Cyclopropyl-3-(2,4-difluorophenyl)propyl)-1-methyl-5-oxo-4,5-dihydro-1H-1,2,4-triazole-3-carboxamide], which “mPTP Rat liver pIC50” value (mPTP [1]) is on record?
The value was 6.76.

What about the “mPTP Rat brain pIC50” value (mPTP [2]) of the same compound?
Its value is 7.91.

What about the pIC50 (mPTP [3]) of the same compound?
The pIC50 was 7.43.

Which results are given for `Cn1nc(C(=O)NC[C@H](Cc2c(F)cc(F)cc2F)C2CC2)[nH]c1=O` [Example 117, (R)—N-(2-cyclopropyl-3-(2,4,6-trifluorophenyl)propyl)-1-methyl-5-oxo-4,5-dihydro-1H-1,2,4-triazole-3-carboxamide]?
mPTP Rat liver pIC50 (mPTP [1]): 6.47; mPTP Rat brain pIC50 (mPTP [2]): 7.56; pIC50 (mPTP [3]): 6.90

What does the source list for `Cn1nc(C(=O)NC[C@H](Cc2ccc(F)cc2)C2CC2)[nH]c1=O` [Example 190]?
mPTP pIC50 rat liver mitochondria (mPTP [1]; Fluo5N fluorescence at 10 min after 75 μM CaCl2): highest activity; mPTP Rat liver pIC50 (mPTP [1]): 7.31; mPTP Rat brain pIC50 (mPTP [2]): 7.75; pIC50 (mPTP [3]): 7.23

For `O=C(NC[C@@H](Cc1ccc(F)cc1)C1CC1)c1nccc(=O)[nH]1` [Example 249], which pIC50 (mPTP [3]) is on record?
The pIC50 was 6.52.

How did the “mPTP Rat liver pIC50” value (mPTP [1]) turn out when `C[C@](CNC(=O)c1ncc(Cl)c(=O)[nH]1)(Cc1ccc(F)cc1F)C1CC1` [Example 260, 5-chloro-N-[(2S)-2-cyclopropyl-3-(2,4-difluorophenyl)-2-methylpropyl]-4-oxo-3H-pyrimidine-2-carboxamide] was run?
The value was 5.78.

And the “mPTP Rat brain pIC50” value (mPTP [2])?
The value was 7.50.

What does the source list for `Cn1nc(C(=O)N2CCC(C)(c3ccccc3)C2)[nH]c1=O` (stereo not shown) [Reference Example 101, 2-methyl-5-(3-methyl-3-phenylpyrrolidine-1-carbonyl)-2,4-dihydro-3H-1,2,4-triazol-3-one]?
mPTP Rat liver pIC50 (mPTP [1]): <4.57; mPTP Rat brain pIC50 (mPTP [2]): <4.52

With `Cn1nc(C(=O)N2CCC(c3ccccc3)CC2)[nH]c1=O` [Reference Example 115, 2-methyl-5-(4-phenylpiperidine-1-carbonyl)-2,4-dihydro-3H-1,2,4-triazol-3-one] as the compound, how does the “mPTP Rat liver pIC50” value (mPTP [1]) read?
The value was less than 4.57.

And the “mPTP Rat brain pIC50” value (mPTP [2])?
The value was less than 4.52.

How did the “mPTP Rat liver pIC50” value (mPTP [1]) turn out when `Cc1cnc(C(=O)NCC(C)(Cc2ccc(F)cc2F)C2CC2)[nH]c1=O` (stereo not shown) [compound 266] was run?
Its value is 5.95.

And the “mPTP Rat brain pIC50” value (mPTP [2])?
The value was 7.04.

From patent US12491185B2, “Inhibitors of mPTP” (NRG Therapeutics Ltd, priority 2023, dated 2025)
